# Results: PubChem BioAssay AID2060499 (Molecular Pharmacology Branch, DTP, NCI, 2025)
# Tested on: 777334-354-R2-J4-PDC tumor spheroids with HUVEC/MSC, viability
# Assay: Anticancer human tumor 777334-354-R2-J4-PDC patient-derived pancreatic adenocarcinoma cell line growth inhibition [GQUAD]
# Details: for IC50: curve of first compound; for viability, T/C: stronger effect = lower value
# From the text: DNA G-quadruplex Stabilizer Agents in Combinations in Complex Spheroids
# A high-throughput screen of multi-cell type tumor spheroids was designed to identify active combinations of DNA G-quadruplex stabilizer agents and targeted small molecules. Complex spheroids include a stromal component modeled by human endothelial cells (HUVEC) and fibroblasts modeled by human mesenchymal stem cells (MSCs). The concentration ranges selected for each drug and investigational agent were based upon clinically achievable concentrations if the clinical Cmax of the agent was known.
# Compounds. The drugs and investigational agents: pidnarulex (CX-5461; NSC782164), APTO-253 (NSC789042), BRACO-19 (NSC847499), peposertib (NSC802822), ceralasertib (NSC780249), elimusertib (NSC800525), camonsertib (NSC841442), AZD-1390 (NSC803789), olaparib (NSC753686), talazoparib (NSC767125), ART-558 (NSC835418), sotorasib (NSC818433), MRTX-1133 (NSC836407), SN-38 (NSC673596), topotecan (NSC609699), etoposide (NSC141540), doxorubicin (NSC123127), gemcitabine (NSC613327), 5-fluorouracil (NSC19893), paclitaxel (NSC125973), vemurafenib (NSC761431), panobinostat (NSC761190), R-306465 (JNJ-16241199; NSC773264), adavosertib (NSC754352), TP-3654 (NSC805149), carboplatin (NSC241240), KSQ-4279 (NSC840948), and staurosporine (NSC755774) were obtained from the National Cancer Institute (NCI) Developmental Therapeutics Program Chemical Repository (34). The FDA-approved anticancer drug set is available from the NCI Developmental Therapeutics Program. […] The stock solutions were prepared in dimethyl sulfoxide (DMSO, Sigma-Aldrich, St. Louis, MO, cat. D2650) at 800-fold the tested concentration and stored at -70 degrees C prior to their use. All drugs and investigational agents were tested over a range starting from a high concentration at or near the clinical Cmax and decreasing in half-log increments. If the clinical Cmax for an agent had not been determined, the highest concentration tested was 10 microM.
# 2.3 Cell Culture. All cells were maintained in an incubator at 37 degrees C and 5% CO2 with 95% humidity. The PDC lines were cultured according to standard operating procedures established by the NCI PDMR. All PDCs were thawed and cultured in Matrigel-coated flasks prepared with a working solution of 1X Ham's F-12 nutrient mix, without supplementation (Invitrogen, cat. 11765054), 100 U/mL penicillin-streptomycin (Invitrogen, cat. 15140122), and 2.5% Matrigel (Corning Inc., cat. 354248) for the first three passages. The 857933-349-R-J2-PDC line was cultured in 6C/Colon 1B media, which includes advanced DMEM/F-12 (Thermo Fisher Scientific, cat. 12634028), 10 mM HEPES (Thermo Fisher Scientific, cat. 15630080), 1X GlutaMAX supplement (Thermo Fisher Scientific, cat. 35050061), 0.1 mg/mL primocin (InvivoGen, cat. ant-pm-2), 10% defined fetal bovine serum, heat inactivated (HyClone Laboratories Inc., cat. SH30070.03HI), 50% L-WRN conditioned media (ATCC, cat. CRL-3276), 1.25 mM N-Acetyl-L-cysteine (Sigma-Aldrich, cat. A9165), 10 mM nicotinamide (Sigma-Aldrich, cat. N0636), 1X B-27 supplement (Thermo Fisher Scientific, cat. 17504044), 1X N-2 supplement (Thermo Fisher Scientific, cat. 17502048), 10 microM Y-27632 dihydrochloride (Tocris Bioscience, cat. 1254), and 50 ng/mL human EGF recombinant protein (Thermo Fisher Scientific, cat. PHG0311). The 485176-168-R4-J1-PDC line was cultured in Panc media, which includes all 6C/Colon 1B media components plus 100 ng/mL human FGF-10 (Thermo Fisher Scientific, cat. 100-26), 500 nM SB-431542 (Selleckchem, cat. S1067), and gastrin (Tocris, cat. 3006).
# […]
# [1] = second compound 0.0316 µM, first compound 0.0316 µM
# [2] = second compound 0.0316 µM, first compound 0.1 µM
# [3] = second compound 0.0316 µM, first compound 0.316 µM
# [4] = second compound 0.0316 µM, first compound 1 µM
# [5] = second compound 0.0316 µM, first compound 3.16 µM
# [6] = second compound 0.0316 µM, first compound 10 µM
# [7] = second compound 0.1 µM, first compound 0.0316 µM
# [8] = second compound 0.1 µM, first compound 0.1 µM
# [9] = second compound 0.1 µM, first compound 0.316 µM
# [10] = second compound 0.1 µM, first compound 1 µM
# [11] = second compound 0.1 µM, first compound 3.16 µM
# [12] = second compound 0.1 µM, first compound 10 µM
# [13] = second compound 0.316 µM, first compound 0.0316 µM
# [14] = second compound 0.316 µM, first compound 0.1 µM
# [15] = second compound 0.316 µM, first compound 0.316 µM
# [16] = second compound 0.316 µM, first compound 1 µM
# [17] = second compound 0.316 µM, first compound 3.16 µM
# [18] = second compound 0.316 µM, first compound 10 µM
# [19] = second compound 1 µM, first compound 0.0316 µM
# [20] = second compound 1 µM, first compound 0.1 µM
# [21] = second compound 1 µM, first compound 0.316 µM
# [22] = second compound 1 µM, first compound 1 µM
# [23] = second compound 1 µM, first compound 3.16 µM
# [24] = second compound 1 µM, first compound 10 µM
# [25] = second compound 3.16 µM, first compound 0.0316 µM
# [26] = second compound 3.16 µM, first compound 0.1 µM
# [27] = second compound 3.16 µM, first compound 0.316 µM
# [28] = second compound 3.16 µM, first compound 1 µM
# [29] = second compound 3.16 µM, first compound 3.16 µM
# [30] = second compound 3.16 µM, first compound 10 µM
# [31] = second compound 10 µM, first compound 0.0316 µM
# [32] = second compound 10 µM, first compound 0.1 µM
# [33] = second compound 10 µM, first compound 0.316 µM
# [34] = second compound 10 µM, first compound 1 µM
# [35] = second compound 10 µM, first compound 3.16 µM
# [36] = second compound 10 µM, first compound 10 µM
# 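Also: spheroids exposed to compounds for 7 days before readout.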
compound,measurement,setting,value
C=CCn1c(=O)c2cnc(Nc3ccc(N4CCN(C)CC4)cc3)nc2n1-c1cccc(C(C)(C)O)n1 + Cc1[nH]c2ccc(F)cc2c1-c1nc2c3cccnc3c3ncccc3c2[nH]1,IC50,second compound 0.0316 µM,725 nM
same,IC50,second compound 0.1 µM,869 nM
same,IC50,second compound 0.316 µM,738 nM
same,IC50,second compound 1 µM,710 nM
same,IC50,second compound 3.16 µM,31.6 nM
same,IC50,second compound 10 µM,< 31.6 nM
same,"viability, T/C",[1],100%
same,"viability, T/C",[2],106%
same,"viability, T/C",[3],79.5%
same,"viability, T/C",[4],39.5%
same,"viability, T/C",[5],30.6%
same,"viability, T/C",[6],34.6%
same,"viability, T/C",[7],87.5%
same,"viability, T/C",[8],92.9%
same,"viability, T/C",[9],78%
same,"viability, T/C",[10],46.6%
same,"viability, T/C",[11],33.1%
same,"viability, T/C",[12],34.5%
same,"viability, T/C",[13],94.3%
same,"viability, T/C",[14],99.8%
same,"viability, T/C",[15],82.8%
same,"viability, T/C",[16],38.3%
same,"viability, T/C",[17],36.7%
same,"viability, T/C",[18],30.9%
same,"viability, T/C",[19],75.3%
same,"viability, T/C",[20],77.5%
same,"viability, T/C",[21],73.1%
same,"viability, T/C",[22],40.1%
same,"viability, T/C",[23],34%
same,"viability, T/C",[24],28.1%
same,"viability, T/C",[25],50.4%
same,"viability, T/C",[26],36.9%
same,"viability, T/C",[27],50.8%
same,"viability, T/C",[28],12.8%
same,"viability, T/C",[29],14%
same,"viability, T/C",[30],14.2%
same,"viability, T/C",[31],31.7%
same,"viability, T/C",[32],27.5%
same,"viability, T/C",[33],24.7%
same,"viability, T/C",[34],14.8%
same,"viability, T/C",[35],14.1%
same,"viability, T/C",[36],11.2%
CC(=O)O[C@H]1C(=O)[C@@]2(C)[C@H]([C@H](OC(=O)c3ccccc3)[C@]3(O)C[C@H](OC(=O)[C@H](O)[C@@H](NC(=O)c4ccccc4)c4ccccc4)C(C)=C1C3(C)C)[C@]1(OC(C)=O)CO[C@@H]1C[C@@H]2O + Cc1[nH]c2ccc(F)cc2c1-c1nc2c3cccnc3c3ncccc3c2[nH]1,IC50,second compound 0.0316 µM,291 nM
same,IC50,second compound 0.1 µM,305 nM
same,IC50,second compound 0.316 µM,222 nM
same,IC50,second compound 1 µM,240 nM
same,IC50,second compound 3.16 µM,< 31.6 nM
same,IC50,second compound 10 µM,< 31.6 nM
same,"viability, T/C",[1],97.1%
same,"viability, T/C",[2],66%
same,"viability, T/C",[3],49.7%
same,"viability, T/C",[4],41.1%
same,"viability, T/C",[5],51.8%
same,"viability, T/C",[6],43.3%
same,"viability, T/C",[7],94.9%
same,"viability, T/C",[8],59.9%
same,"viability, T/C",[9],48.4%
same,"viability, T/C",[10],46.4%
same,"viability, T/C",[11],49.6%
same,"viability, T/C",[12],47.6%
same,"viability, T/C",[13],81.4%
same,"viability, T/C",[14],59.5%
same,"viability, T/C",[15],45.6%
same,"viability, T/C",[16],45.2%
same,"viability, T/C",[17],47.5%
same,"viability, T/C",[18],44.1%
same,"viability, T/C",[19],70.9%
same,"viability, T/C",[20],58.5%
same,"viability, T/C",[21],44.2%
same,"viability, T/C",[22],45.3%
same,"viability, T/C",[23],44.6%
same,"viability, T/C",[24],38.1%
same,"viability, T/C",[25],35.9%
same,"viability, T/C",[26],28%
same,"viability, T/C",[27],22.2%
same,"viability, T/C",[28],17.4%
same,"viability, T/C",[29],17.8%
same,"viability, T/C",[30],15%
same,"viability, T/C",[31],30.7%
same,"viability, T/C",[32],23%
same,"viability, T/C",[33],19.6%
same,"viability, T/C",[34],14%
same,"viability, T/C",[35],15.3%
same,"viability, T/C",[36],15.7%
